Experimental data: patent publication US20230079045A1 (priority 2019, published 2023)

Experiments:
Format in all cases: cell-based, influenza virus
IFVA/Mal/302/54 = experiment: cytopathic effect (CPE) antiviral test in MDCK cells, IFVA/Mal/302/54; details: unidentified influenza virus, MDCK, 120 h, read-out: EC50(IFVA/Mal/302/54), MDCK cells, CPE method, CCK-8 cell viability, 5 days
IFVA/Weiss/43 = experiment: cytopathic effect (CPE) antiviral test in MDCK cells, IFVA/Weiss/43; details: unidentified influenza virus, MDCK, 120 h, read-out: EC50(IFVA/Weiss/43), MDCK cells, CPE method, CCK-8 cell viability, 5 days
IFV A/PR/8/34 = experiment: cytopathic effect (CPE) antiviral test in MDCK cells, IFV A/PR/8/34; details: unidentified influenza virus, PR/8, MDCK, 120 h, read-out: EC50(IFV A/PR/8/34)

| SMILES | EC50 (IFVA/Mal/302/54) | EC50 (IFVA/Weiss/43) | EC50 (IFV A/PR/8/34) |
| --- | --- | --- | --- |
| [2H]C([2H])([2H])C(=O)Nc1ccc2oc(-c3ccnc(C(=O)N4CCN(C(c5ccccc5)c5nnn(C(F)F)n5)CC4)c3)nc2c1 (racemic) [Compound 114, (R/S)—N-(2-(2-(4-((2-(difluoromethyl)-2H-tetrazol-5-yl)(phenyl)methyl)piperazine-1-carbonyl)pyridin-4-yl)benzo[d]oxazol-5-yl) Deuterated Acetamide] | 10 nM | 19 nM | 25 nM |
| O=C(c1cc(-c2nc3cc(-c4nccs4)ccc3o2)ccn1)N1CCN(C(c2ccccc2)c2nnn(C(F)F)n2)CC1 (racemic) [Compound 119, (R/S)-(4-((2-(difluoromethyl)-2H-tetrazol-5-yl)(phenyl)methyl)piperazin-1-yl)(4-(5-(thiazol-2-yl)benzo[d]oxazol-2-yl)pyridin-2-yl)methanone] | 6 nM | 2 nM | 22 nM |
| O=C(Nc1ccc2oc(-c3ccnc(C(=O)N4CCN(C(c5ccccc5)c5nnn(C(F)F)n5)CC4)c3)nc2c1)C1CC1 (stereo not drawn) [Compound 36, N-(2-(2-(4-((2-(difluoromethyl)-2H-tetrazol-5-yl)(phenyl)methyl)piperazine-1-carbonyl)pyridin-4-yl)benzo[d]oxazol-5-yl)cyclopropanecarboxamide] | 10 nM | 4 nM | 17 nM |
| Cn1ccnc1-c1ccc2oc(-c3ccnc(C(=O)N4CCN(C(c5ccccc5)c5nnn(C(F)F)n5)CC4)c3)nc2c1 (stereo not drawn) [Compound 72, (4-((2-(difluoromethyl)-2H-tetrazol-5-yl)(phenyl)methyl)piperazin-1-yl)(4-(5-(1-methyl-1H-imidazol-2-yl)benzo[d]oxazol-2-yl)pyridin-2-yl)methanone] | 4 nM | 4 nM | 4 nM |
| O=C(Nc1ccc2oc(-c3ccnc(C(=O)N4CCN([C@H](c5ccccc5)c5nnn(C(F)F)n5)CC4)c3)nc2c1)[C@@H]1CC1(F)F [Compound 73, (S)—N-(2-(2-(4-((R)-(2-(difluoromethyl)-2H-tetrazol-5-yl)(phenyl)methyl)piperazine-1-carbonyl)pyridin-4-yl)benzo[d]oxazol-5-yl)-2,2-difluorocyclopropane-1-carboxamide] | 6 nM | 2 nM | 3 nM |
| O=C(Nc1ccc2oc(-c3ccnc(C(=O)N4CCN([C@H](c5ccccc5)c5nnn(C(F)F)n5)CC4)c3)nc2c1)[C@@H]1C[C@@H]1F [Compound 75, (1S,2S)—N-(2-(2-(4-((R)-(2-(difluoromethyl)-2H-tetrazol-5-yl)(phenyl)methyl)piperazine-1-carbonyl)pyridin-4-yl)benzo[d]oxazol-5-yl)-2-fluorocyclopropane-1-carboxamide] | 6 nM | 2 nM | 2 nM |
| Cc1nnn(C(c2ccccc2)C2CCN(C(=O)c3cc(-c4nc5cc(NC(=O)[C@@H]6C[C@@H]6F)ccc5o4)ccn3)CC2)n1 (stereo partly drawn) [Compound 85, (1S,2S)-2-fluoro-N-(2-(2-(4-((5-methyl-2H-tetrazol-2-yl)(phenyl)methyl)piperidine-1-carbonyl)pyridin-4-yl)benzo[d]oxazol-5-yl)cyclopropanecarboxamide] | 4 nM | 4 nM | 4 nM |
